Test results from patent US20210169897A1, “Concentrated Fulvestrant Compositions” (Nevakar Inc., priority 2017, published 2021).
≈ marks a conversion by molar mass, not a printed value. Read-outs that look alike come from different tables or passages of the source.

Columns and labels:
[1] = background, cited from earlier work
[2] = Saturation solubility of fulvestrant in combinations of solvents/detergents (Table 2); format: physicochemical
Protocol: To increase solubility, various other solvents, co-solvents, and surfactants were tested. For example, in some embodiments the monohydroxylated fatty acids (e.g., free ricinoleic acid) in the solvent were substituted with other lipid solvents such as castor oil or oleic acid. […] Here, some formulations including lipid solvents (especially in combination with ethanol and/or benzyl alcohol) can solubilize fulvestrant at a concentration higher than 60 mg/ml. Yet, most of such formulations capable of solubilizing fulvestrant at a higher concentration (e.g., higher than 60 mg/ml) require higher concentration of alcohols (e.g., higher than 30%, etc.), which may cause instability of the formulation (e.g., precipitation of fulvestrant over time, etc.). Moreover, some solvents also required substantial quantities of emulsifier (e.g., Cremophor™ (hydrogenated castor oil reacted with ethylene oxide)), which is not desirable as an ingredient for injection at the tested concentrations. Indeed, it is generally preferred that the fulvestrant compositions and solutions for injection are substantially free (i.e., less than 1% w/v, or less than 0.1% w/v, or less than 0.01% w/v) from surfactants, detergents, and/or emulsifiers.

## C[C@]12CC[C@@H]3c4ccc(O)cc4C[C@@H](CCCCCCCCC[S+]([O-])CCCC(F)(F)C(F)(F)F)[C@H]3[C@@H]1CC[C@@H]2O (stereo partly drawn) [Fulvestrant]
[1]; fulvestrant in benzyl alcohol
  solubility: > 200 mg/mL
[1]; fulvestrant in ethanol
  solubility: > 200 mg/mL
physchem; Cremophor RH40, aqueous with cosolvent or surfactant or cyclodextrin
  solubility: 47.2 mg/mL (≈ 77.9 mM)
physchem; N,N-dimethylacetamide (DCAM), organic solvent or mixture
  solubility: 306 mg/mL (≈ 504 mM)
physchem; PEG 300, organic solvent or mixture
  solubility: 28.3 mg/mL (≈ 46.6 mM)
physchem; PEG 400, organic solvent or mixture
  solubility: 24.8 mg/mL (≈ 40.9 mM)
physchem; benzyl alcohol, organic solvent or mixture
  solubility: 269 mg/mL (≈ 443 mM)
physchem; benzyl benzoate, organic solvent or mixture
  solubility: 3.9 mg/mL (≈ 6.43 mM)
physchem; butyric acid, organic solvent or mixture
  solubility: 318 mg/mL (≈ 524 mM)
physchem; castor oil, oil or lipid
  solubility: 21.2 mg/mL (≈ 34.9 mM)
physchem; dimethylsulfoxide (DMSO), organic solvent or mixture
  solubility: 320 mg/mL (≈ 527 mM)
physchem; ethanol, organic solvent or mixture
  solubility: 445 mg/mL (≈ 734 mM)
physchem; heptanoic acid, organic solvent or mixture
  solubility: 154 mg/mL (≈ 255 mM)
physchem; hexanoic acid, organic solvent or mixture
  solubility: 266 mg/mL (≈ 438 mM)
physchem; octanoic acid, organic solvent or mixture
  solubility: 92.2 mg/mL (≈ 152 mM)
physchem; oleic acid, oil or lipid
  solubility: 4.8 mg/mL (≈ 7.91 mM)
physchem; olive oil, oil or lipid
  solubility: 0.4 mg/mL (≈ 0.659 mM)
physchem; propanoic acid, organic solvent or mixture
  solubility: 319 mg/mL (≈ 526 mM)
physchem; propylene glycol, organic solvent or mixture
  solubility: 39.1 mg/mL (≈ 64.4 mM)
physchem; ricinoleic acid, oil or lipid
  solubility: 26 mg/mL (≈ 42.8 mM)
[2]; 12.5% ethanol, 75% castor oil, 12.5% Cremophor RH 40 (% w/v), oil or lipid, thermodynamic from solid, No 11 (% w/v): 12.5% Ethanol, 75% Castor Oil, 12.5% Cremophor RH 40, read-out: Solubility
  solubility: 128 mg/mL
[2]; 50% castor oil, 10% Lipoid E 80, 40% ethanol (% w/v), oil or lipid, thermodynamic from solid, No 12 (% w/v): 50% Castor Oil, 10% Lipoid E 80, 40% Ethanol, read-out: Solubility
  solubility: 49.3 mg/mL
[2]; 50% castor oil, 25% ethanol, 25% Cremophor 40 (% w/v), oil or lipid, thermodynamic from solid, No 9 (% w/v): 50% Castor Oil, 25% Ethanol, 25% Cremophor 40, read-out: Solubility
  solubility: 134 mg/mL
[2]; 50% oleic acid, 25% ethanol, 25% Cremophor 40 (% w/v), oil or lipid, thermodynamic from solid, No 8 (% w/v): 50% Oleic Acid, 25% Ethanol, 25% Cremophor 40, read-out: Solubility
  solubility: 130 mg/mL
[2]; 60% castor oil, 18% BA, 13% ethanol, 9% Lipoid E 80 (% w/v), oil or lipid, thermodynamic from solid, No 14 (% w/v): 60% Castor Oil, 18% BA, 13% Ethanol, 9% Lipoid E 80, read-out: Solubility
  solubility: 63 mg/mL
[2]; 70% castor oil, 20% oleic acid, 5% BA, 5% ethanol (% w/v), oil or lipid, thermodynamic from solid, No 16 (% w/v): 70% Castor Oil, 20% Oleic Acid, 5% BA, 5% Ethanol, read-out: Solubility
  solubility: 49.9 mg/mL
[2]; 75% oleic acid, 12.5% ethanol, 12.5% Cremophor RH 40 (% w/v), oil or lipid, thermodynamic from solid, No 10 (% w/v): 75% Oleic Acid, 12.5% Ethanol, 12.5% Cremophor RH 40, read-out: Solubility
  solubility: 113 mg/mL
[2]; 75% oleic acid, 25% castor oil (% w/v), oil or lipid, thermodynamic from solid, No 5 (% w/v): 75% Oleic Acid, 25% Castor Oil, read-out: Solubility
  solubility: 15.5 mg/mL
[2]; 85% castor oil, 12% BA, 3% HP-B-CD (% w/v), oil or lipid, thermodynamic from solid, No 15 (% w/v): 85% Castor Oil, 12% BA, 3% HP-B-CD, read-out: Solubility
  solubility: 17.2 mg/mL
[2]; No 13 (% w/v): 15% Ethanol, 15% Castor Oil, 15% Benzyl Alcohol, 10% Lipoid E 80
  solubility: 45.95 mg/mL
[2]; oil or lipid, thermodynamic from solid, No 6 (% w/v): 49.5% Oleic Acid, 49.5% Castor Oil, 1% Polysorbate 20, read-out: Solubility
  solubility: 22.8 mg/mL
[2]; oil or lipid, thermodynamic from solid, No 7 (% w/v): 74.5% Oleic Acid, 24.5% Castor Oil, 1% Polysorbate 20, read-out: Solubility
  solubility: 15.7 mg/mL
[2]; oil or lipid, thermodynamic from solid, No 17 (% w/v): 10% Ethanol, 65% Castor Oil, 20% Oleic Acid, 5% Benzyl Alcohol, read-out: Solubility
  solubility: 68.8 mg/mL
[2]; oil or lipid, thermodynamic from solid, No 18 (% w/v): 5% Ethanol, 65% Castor Oil, 20% Oleic Acid, 10% Benzyl Alcohol, read-out: Solubility
  solubility: 39.5 mg/mL
[2]; oil or lipid, thermodynamic from solid, No 19 (% w/v): 22.5% Castor Oil, 67.5% Oleic Acid, 5% BA, 5% Ethanol, read-out: Solubility
  solubility: 47.3 mg/mL
[2]; oil or lipid, thermodynamic from solid, No 20 (% w/v): 45% Oleic Acid, 45% Castor Oil, 5% Ethanol, 5% Benzyl Alcohol, read-out: Solubility
  solubility: 43.7 mg/mL
[2]; oil or lipid, thermodynamic from solid, No 21 (% w/v): 5% Cremophor EL 35, 5% Ethanol, 5% Benzyl Alcohol, 85% Castor Oil, read-out: Solubility
  solubility: 24.4 mg/mL
[2]; solvent mixture, oil or lipid, thermodynamic from solid, No 4 (% w/v): 25% Oleic Acid, 75% Castor Oil, read-out: Solubility
  solubility: 18.2 mg/mL
[2]; solvent mixture, oil or lipid, thermodynamic from solid, No 3 (% w/v): 50% Castor Oil, 50% Oleic Acid, read-out: Solubility
  solubility: 20 mg/mL
[2]; solvent/detergent mixture, oil or lipid, thermodynamic from solid, No 1 (% w/v): 99% Oleic Acid, 1% Poly. 20, read-out: Solubility
  solubility: 4.08 mg/mL
[2]; solvent/detergent mixture, oil or lipid, thermodynamic from solid, No 2 (% w/v): 99% Castor Oil, 1% Poly. 20, read-out: Solubility
  solubility: 23.2 mg/mL
[2]; solvent/detergent mixture, oil or lipid, thermodynamic from solid, No 22 (% w/v): 5% HS 15, 5% Ethanol, 5% Benzyl Alcohol, 85% Castor Oil, read-out: Solubility
  solubility: 39.2 mg/mL
[2]; solvent/detergent mixture, oil or lipid, thermodynamic from solid, No 23 (% w/v): 5% Cremophor RH 40, 5% Ethanol, 5% Benzyl Alcohol, 85% Castor Oil, read-out: Solubility
  solubility: 38 mg/mL
[2]; solvent/detergent mixture, oil or lipid, thermodynamic from solid, No 24 (% w/v): 44.5% Oleic Acid, 44.5% Castor Oil, 5% Ethanol, 5% Benzyl Alcohol, 1% Poly. 20, read-out: Solubility
  solubility: 51.9 mg/mL
[2]; solvent/detergent mixture, oil or lipid, thermodynamic from solid, No 25 (% w/v): 67% Oleic Acid, 22% Castor Oil, 5% Ethanol, 5% Benzyl Alcohol, 1% Poly. 20, read-out: Solubility
  solubility: 41 mg/mL
